{"source": "patent US9650360B2", "about": "“Anti-mycobacterial drugs against tuberculosis” (priority 2012, dated 2017)", "test_system": "HIV", "assay": "in vitro anti-HIV activity in cell culture", "assay_type": "cell-based", "data": [{"smiles": "O=C(/C=C(\\O)c1cc(Cc2c(F)cc(F)cc2F)cn(Cc2ccccc2F)c1=O)C(=O)N1CCN(c2cccc3ccccc23)CC1", "values": [{"measurement": "EC90 (concentration for 90% inhibition of virus replication)", "value": "nM range"}]}]}
